Test results from ChEMBL document CHEMBL1139479, “Enantioselective nonsteroidal aromatase inhibitors identified through a multidisciplinary medicinal chemistry approach” (J Med Chem, 2005).

Target: T1, CYP17 (steroid 17-alpha-hydroxylase/17,20 lyase) (Homo sapiens, UniProt P05093)
T1 sequence (P05093 whole entry): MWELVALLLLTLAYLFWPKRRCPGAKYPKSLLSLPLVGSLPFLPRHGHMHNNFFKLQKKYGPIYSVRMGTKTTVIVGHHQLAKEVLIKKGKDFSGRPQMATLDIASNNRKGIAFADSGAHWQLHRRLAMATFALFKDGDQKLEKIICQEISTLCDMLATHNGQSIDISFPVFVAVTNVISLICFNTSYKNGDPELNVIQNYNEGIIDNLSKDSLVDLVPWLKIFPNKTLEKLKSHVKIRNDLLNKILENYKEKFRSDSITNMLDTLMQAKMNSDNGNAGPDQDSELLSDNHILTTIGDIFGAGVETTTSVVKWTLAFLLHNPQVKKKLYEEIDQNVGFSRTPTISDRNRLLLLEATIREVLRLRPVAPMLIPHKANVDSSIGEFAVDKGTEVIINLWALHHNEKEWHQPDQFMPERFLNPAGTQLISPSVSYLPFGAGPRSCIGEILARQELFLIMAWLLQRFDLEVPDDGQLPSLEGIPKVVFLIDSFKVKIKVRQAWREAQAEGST
Experiment: in vitro
Description: Inhibition of human CYP17 expressed in Escherichia coli at 2.5 uM

inhibition at 2.5 µM [%]	Compound
6	N#Cc1ccc([C@H](c2coc3ccccc3c2=O)n2ccnc2)cc1
6	N#Cc1ccc([C@@H](c2coc3ccccc3c2=O)n2ccnc2)cc1
17	O=c1c([C@@H](c2ccc(Br)cc2)n2ccnc2)coc2ccccc12

Second part, the molecule before the results:

Compound	inhibition at 2.5 µM [%]
O=c1c([C@@H](c2ccc([N+](=O)[O-])cc2)n2ccnc2)coc2ccccc12	20
O=c1c([C@H](c2ccc(Br)cc2)n2ccnc2)coc2ccccc12	13
O=c1c([C@H](c2ccc([N+](=O)[O-])cc2)n2ccnc2)coc2ccccc12	12
